# Biological target: T1, N-terminally GST-tagged DLK (catalytic domain amino acid 1-520) (Homo sapiens, UniProt Q12852)
# T1 construct: N-terminally GST-tagged DLK (catalytic domain amino acid 1-520); purchased Carna Bioscience
# T1 sequence (Q12852 1-520): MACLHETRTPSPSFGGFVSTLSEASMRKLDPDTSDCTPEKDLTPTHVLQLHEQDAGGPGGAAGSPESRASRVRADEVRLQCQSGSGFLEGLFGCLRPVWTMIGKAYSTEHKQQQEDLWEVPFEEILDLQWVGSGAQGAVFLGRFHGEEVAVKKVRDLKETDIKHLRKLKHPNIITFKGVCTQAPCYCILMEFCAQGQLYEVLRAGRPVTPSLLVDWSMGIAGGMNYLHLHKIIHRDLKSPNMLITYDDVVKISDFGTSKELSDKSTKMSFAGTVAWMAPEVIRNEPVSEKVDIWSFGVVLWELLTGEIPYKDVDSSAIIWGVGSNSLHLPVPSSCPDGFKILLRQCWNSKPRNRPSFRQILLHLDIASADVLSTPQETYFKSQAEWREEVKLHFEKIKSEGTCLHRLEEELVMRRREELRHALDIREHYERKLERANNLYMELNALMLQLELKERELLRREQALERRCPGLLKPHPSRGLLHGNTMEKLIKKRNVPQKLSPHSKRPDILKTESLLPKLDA
# Assay: DLK TR-FRET inhibition assay
# Assay type: biochemical
# Details: 5 nM GST-DLK, 40 nM HIS-MKK4 K131M substrate, 30 μM ATP, 60 minutes at ambient temperature
# How it was run: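 Phosphorylated MKK4 was quantified by TR-FRET (Eu-labelled anti-phospho-MKK4, D2 anti-HIS; 3 h, 665 and 615 nm emission) after EDTA quench. Reactions held 5 nM GST-tagged DLK catalytic domain (1-520), 40 nM HIS-MKK4 K131M substrate, 30 μM ATP and compound (3-fold series from 20 uM), 60 min, room temperature, pH 7.5.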
row,Compound,Ki
1,"CC(C)n1nc(-c2cnc(N)c(OC(F)F)c2)cc1[C@H]1[C@@H]2CC(F)(CN(C)C)C[C@@H]21 (mixture of isomers) [compound 178, 3-(difluoromethoxy)-5-(5-((1R, 5S,6r)-3-((dimethylamino)methyl)-3-fluorobicyclo[3.1.0]hexan-6-yl)-1-isopropyl-1H-pyrazol-3-yl)pyridin-2-amine]",2.1 nM
2,"CC(C)n1nc(-c2cnc(N)c(OC(F)(F)F)c2)cc1[C@H]1[C@@H]2C[C@@H](N3CCOC[C@@H]3C)C[C@@H]21 [compound 104, 5-(1-isopropyl-5-((1R,3s,5S,6S)-3-((S)-3-methylmorpholino)bicyclo[3.1.0]hexan-6-yl)-1H-pyrazol-3-yl)-3-(trifluoromethoxy) pyridin-2-amine]",2.43 nM
3,"CC(C)n1nc(-c2cnc(N)c(SC(F)(F)F)c2)cc1[C@H]1[C@@H]2C[C@@H](N3CCOCC3)C[C@@H]21 [compound 95, 5-(1-isopropyl-5-((1R,3s,5S,6r)-3-morpholinobicyclo[3.1.0]hexan-6-yl)-1H-pyrazol-3-yl)-3-((trifluoro-methyl)thio)pyridin-2-amine]",2.13 nM
4,"CC(C)n1nc(-c2cnc(N)c(OC(F)(F)F)c2)cc1[C@H]1[C@@H]2C[C@@H](N3CC4(CN(C)CCO4)C3)C[C@@H]21 [compound 219, 5-(1-isopropyl-5-((1R,3s,5S,6r)-3-(8-methyl-5-oxa-2,8-diazaspiro [3.5]nonan-2-yl)bicyclo[3.1.0]hexan-6-yl)-1H-pyrazol-3-yl)-3-(trifluoromethoxy)pyridin-2-amine]",2.2 nM
5,"CC(C)n1nc(-c2cnc(N)c(C(F)(F)F)c2)cc1[C@H]1[C@@H]2C[C@@H](N(C)CC3COC3)C[C@@H]21 [compound 21, 5-(1-isopropyl-5-((1R,3s,5S,6r)-3-(methyl(oxetan-3-ylmethyl)amino)bicyclo[3.1.0]hexan-6-yl)-1H-pyrazol-3-yl)-3-(trifluoromethyl) pyridin-2-amine]",4.2 nM
6,"CC(C)n1nc(-c2cnc(N)c(C(=O)N3CCCC3)c2)cc1[C@H]1[C@@H]2C[C@H](N3CC(F)C3)C[C@@H]21 [compound 107, (2-amino-5-(5-((1R,3r,5S,6r)-3-(3-fluoroazetidin-1-yl)bicyclo [3.1.0]hexan-6-yl)-1-isopropyl-1H-pyrazol-3-yl)pyridin-3-yl) (pyrrolidin-1-yl)methanone]",> 321 nM
7,"5-(1-isopropyl-5-((1R,3s,5S,6R)- 3-((R)-2-methylmorpholino) bicyclo[3.1.0]hexan-6-yl)-1H- pyrazol-3-yl)-3-(trifluoromethoxy) pyridin-2-amine [compound 11]",1.87 nM
8,"CC(C)n1nc(-c2cnc(N)c(OC(F)F)c2)cc1[C@H]1[C@@H]2C[C@@H](N3CCN(C)C[C@@H]3C)C[C@@H]21 [compound 241, 3-(difluoromethoxy)-5-(5-((1R,3s,5S,6S)-3-((S)-2,4-dimethyl-piperazin-1-yl)bicyclo[3.1.0]hexan-6-yl)-1-isopropyl-1H-pyrazol-3-yl)pyridin-2-amine]",2 nM
9,"3-(difluoromethoxy)-5-(5- ((1R,3r,5S,6r)-3-(3-fluoroazetidin-1- yl)bicyclo[3.1.0]hexan-6-yl)-1- isopropyl-1H-pyrazol-3-yl) pyridin-2-amine [compound 60]",2.26 nM
10,"CC(=O)N(C)[C@H]1C[C@@H]2[C@H](C1)[C@H]2c1cc(-c2cnc(N)c(C(F)(F)F)c2)nn1C(C)C [compound 182, N-((1R,5S,6r)-6-(3-(6-amino-5-(trifluoromethyl)pyridin-3-yl)-1-isopropyl-1H-pyrazol-5-yl)bicyclo [3.1.0]hexan-3-yl)-N-methylacetamide]",3 nM
11,"CC(C)n1nc(-c2cnc(N)c(C(F)(F)F)c2)cc1[C@H]1[C@@H]2C[C@H](N3CC4(COC4)C3)C[C@@H]21 [compound 65, 5-(5-((1R,3r,5S,6r)-3-(2-oxa-6-azaspiro[3.3]heptan-6-yl)bicyclo [3.1.0]hexan-6-yl)-1-isopropyl-1H-pyrazol-3-yl)-3-(trifluoro-methyl)pyridin-2-amine]",1.13 nM
12,"CC(C)n1nc(-c2cnc(N)c(OC(F)F)c2)cc1[C@H]1[C@@H]2C[C@@H](N3CCN4CCCC4C3)C[C@@H]21 (single isomer, unassigned) [compound 258]",0.9 nM
13,"CC(C)n1nc(-c2cnc(N)c(C(F)(F)F)c2)cc1[C@H]1[C@@H]2C[C@@H](N3CCOC[C@@H]3C)C[C@@H]21 [compound 103, 5-(1-isopropyl-5-((1R,3s,5S,6S)-3-((S)-3-methylmorpholino)bicyclo[3.1.0]hexan-6-yl)-1H-pyrazol-3-yl)-3-(trifluoromethyl) pyridin-2-amine]",1.28 nM
14,"CC(C)n1nc(-c2cnc3cnn([C@@H](C)c4ccccn4)c3c2)cc1[C@H]1[C@@H]2C[C@H](N3CCOCC3)C[C@@H]21 [compound 34, 4-((1R,3S,5S,6r)-6-(1-isopropyl-3-(1-((S)-1-(pyridin-2-yl)ethyl)-1H-pyrazolo[4,3-b]pyridin-6-yl)-1H-pyrazol-5-yl)bicyclo[3.1.0]hexan-3-yl)morpholine]",4.19 nM
15,"CC(C)n1nc(-c2cnc(N)c(OC(F)F)c2)cc1[C@H]1[C@@H]2C[C@@H](N3CCN4CCCC4C3)C[C@@H]21 (stereo partly drawn) [compound 88, 3-(difluoromethoxy)-5-(5-((1R,3s,5S,6r)-3-(hexahydropyrrolo [1,2-a]pyrazin-2(1H)-yl)bicyclo [3.1.0]hexan-6-yl)-1-isopropyl-1H-pyrazol-3-yl)pyridin-2-amine]",1.4 nM
16,"CC(C)n1nc(-c2cnc(N)c(OC(F)(F)F)c2)cc1[C@H]1[C@@H]2C[C@@H](NCC(F)F)C[C@@H]21 [compound 288, 5-(5-((1R,3s,5S,6r)-3-((2,2-udifloroethyl)amino)bicyclo[3.1.0]hexan-6-yl)-1-isopropyl-1H-pyrazol-3-yl)-3-(tritluoromethoxy) pyridin-2-amine]",6.3 nM
17,"CC(C)n1nc(-c2cnc(N)c(C(F)(F)F)c2)cc1[C@H]1[C@@H]2C[C@@H](N3CCCN(C)CC3)C[C@@H]21 [compound 210, 5-(1-isopropyl-5-((1R,3s,5S,6r)-3-(4-methyl-1,4-diazepan-1-yl)bicyclo[3.1.0]hexan-6-yl)-1H-pyrazol-3-yl)-3-(trifluoromethyl) pyridin-2-amine]",2 nM
18,"Nc1ncc(-c2cc([C@H]3[C@@H]4C[C@@H](N5CCOCC5)C[C@@H]43)n(CC3CC3)n2)cc1OC(F)(F)F [compound 292, 5-(1-(cyclopropylmethyl)-5-((1R,3s,5S,6r)-3-morpholinobicyclo [3.1.0]hexan-6-yl)-1H-pyrazol-3-yl)-3-(trifluoromethoxy) pyridin-2-amine]",4.6 nM
19,"CC(C)n1nc(-c2cnc(N)c(C(F)(F)F)c2)cc1[C@H]1[C@@H]2C[C@H](N(C)C)C[C@@H]21 [compound 188, 5-(5-((lR,3r,5S,6r)-3-(dimethylamino)bicyclo[3.1,0]hexan-6-yl)-1-isopropyl-1 H-pyrazol-3-yl)-3-(trifluoromethyl)pyridin-2-am inc]",2.8 nM
20,"COC1CN([C@@H]2C[C@@H]3[C@H](C2)[C@H]3c2cc(-c3cnc(N)c(OC(F)F)c3)nn2CC2CC2)C1 [compound 155, 5-(1-(cyclopropylmethyl)-5-((1R,3s,5S,6r)-3-(3-methoxyazetidin-1-yl)bicyclo[3.1.0]hexan-6-yl)-1H-pyrazol-3-yl)-3-(difluoromethoxy)pyridin-2-amine]",3.3 nM
21,"CC(C)n1nc(-c2cnc(N)c(OC(F)F)c2)cc1[C@H]1[C@@H]2CC(F)(F)C[C@@H]21 [compound 216, 5-(5-((1R,5S,6r)-3,3-difluorobicyclo [3.1.0]hexan-6-yl)-1-isopropyl-1H-pyrazol-3-yl)-3-(difluoro-methoxy)pyridin-2-amine]",6.6 nM
22,"CC(C)n1nc(-c2cnc(N)c(C(F)(F)F)c2)cc1[C@H]1[C@@H]2C[C@@H](N3CCN[C@@H](C)C3)C[C@@H]21 [compound 235, 5-(1-isopropyl-5-((1R,3s,5S,6S)-3-((S)-3-methylpiperazin-1-yl)bicyclo[3.1.0]hexan-6-yl)-1H-pyrazol-3-yl)-3-(trifluoromethyl) pyridin-2-amine]",3.8 nM
23,"5-(1-isopropyl-5-((1R,3r,5S,6R)- 3-((R)-2-methylmorpholino) bicyclo[3.1.0]hexan-6-yl)-1H- pyrazol-3-yl)-3-(trifluoromethoxy) pyridin-2-amine [compound 12]",1.77 nM
24,"Nc1ncc(-c2cc([C@H]3[C@@H]4C[C@H](N5CCCOCC5)C[C@@H]43)n(CC(F)F)n2)cc1OC(F)F [compound 233, 5-(5-((1R,3r,5S,6r)-3-(1,4-oxazepan-4-yl)bicyclo[3.1.0]hexan-6-yl)-1-(2,2-difluoroethyl)-1H-pyrazol-3-yl)-3-(difluoromethoxy) pyridin-2-amine]",1.8 nM

# Reference: patent US9365583B2, “Substituted pyrazoles and uses thereof” (Genentech, Inc., priority 2013, dated 2016)
